In paper PMC9000719, “Design, Synthesis and Bioactivity Evaluation of Coumarin–BMT Hybrids as New Acetylcholinesterase Inhibitors” (Molecules, 2022):
Values joined by “and” are separate entries in the source; they are usually repeats but may differ in a detail not shown here. Identical values can stand only once. “Also recorded” adds a separate entry of the source. Marks after values point to notes of the source that are not given here.

Experiments:
Format in all cases: biochemical
[1] = target: T1, Acetylcholinesterase (AChE, E.C. 3.1.1.7, from electric eel) (Electrophorus electricus, UniProt O42275); assay: Crude screening on AChE inhibition (Ellman method); details: 2 μM compounds; means ± SEM of at least three independent experiments; normalized as percentage of control
T1 construct: purchased Sigma Aldrich

[2] = target: T2, AChE (Electrophorus electricus); assay: biochemical; details: inhibition constant against AChE; substrate ATCI at two concentrations
T2 construct: purchased Sigma Aldrich
Experimental: (§1) Kinetic characterization was performed using Dixon’s method. […] Assay medium contained DTNB solution 15 mM (40 µL), AChE solution 10 units/mL (50 µL), substrate solutions (10 µL) and various concentrations of tested compounds (20 µL). […] Results were computed and presented on the Lineweaver–Burk plot to determine the Ki value and to distinguish the type of enzyme inhibition.

[3] = test system: T3, human AChE (Electrophorus electricus); assay: biochemical; details: Lineweaver–Burk plots
T3 construct: purchased Sigma Aldrich
Experimental: as §1

T2 sequence (O42275 24-633): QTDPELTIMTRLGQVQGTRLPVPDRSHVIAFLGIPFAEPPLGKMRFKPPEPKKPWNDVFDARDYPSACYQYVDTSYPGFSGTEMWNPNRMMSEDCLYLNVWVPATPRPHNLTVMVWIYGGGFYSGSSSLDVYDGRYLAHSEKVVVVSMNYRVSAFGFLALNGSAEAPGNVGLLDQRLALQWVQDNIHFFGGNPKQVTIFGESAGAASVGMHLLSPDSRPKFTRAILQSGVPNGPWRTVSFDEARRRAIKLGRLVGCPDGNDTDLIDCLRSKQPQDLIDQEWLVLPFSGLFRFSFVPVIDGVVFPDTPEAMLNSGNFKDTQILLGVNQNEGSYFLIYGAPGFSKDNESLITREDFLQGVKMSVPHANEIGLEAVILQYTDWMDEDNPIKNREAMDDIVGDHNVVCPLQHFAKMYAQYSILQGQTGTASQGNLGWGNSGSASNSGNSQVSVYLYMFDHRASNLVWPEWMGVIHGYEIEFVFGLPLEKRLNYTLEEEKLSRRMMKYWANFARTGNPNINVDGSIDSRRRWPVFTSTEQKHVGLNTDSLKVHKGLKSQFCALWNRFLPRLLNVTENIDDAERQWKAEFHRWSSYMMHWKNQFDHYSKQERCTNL
T1 sequence (O42275 24-633): as above
T3 sequence (O42275 24-633): as above

| Compound | Inhibition Ratio (%) [1] | Ki [2] [nM] | type of enzyme inhibition [3] |
| --- | --- | --- | --- |
| 2-oxo-7-(trifluoromethoxy)-N-(6-((4,11,11-trimethyl-1,2,3,4-tetrahydro-1,4-methanoacridin-9-yl)amino)hexyl)-2H-chromene-3-carboxamide [Compound 8d] | 62.92 ± 3.32 ^e % |  |  |
| 7-bromo-2-oxo-N-(6-((4,11,11-trimethyl-1,2,3,4-tetrahydro-1,4-methanoacridin-9-yl)amino)hexyl)-2H-chromene-3-carboxamide [Compound 8c] | 57.58 ± 3.30 ^fg % |  |  |
| CC12CCC(c3c1nc1ccccc1c3NCCCCCNC(=O)c1cc3ccccc3oc1=O)C2(C)C (centres unmarked) [Compound 7a, 2-oxo-N-(5-((4,11,11-trimethyl-1,2,3,4-tetrahydro-1,4-methanoacridin-9-yl)amino)pentyl)-2H-chromene-3-carboxamide] | 71.11 ± 0.94 ^d % |  |  |
| Cc1ccc2oc(=O)c(C(=O)NCCCCCNc3c4c(nc5ccccc35)C3(C)CCC4C3(C)C)cc2c1 (centres unmarked) [Compound 7b, 6-methyl-2-oxo-N-(5-((4,11,11-trimethyl-1,2,3,4-tetrahydro-1,4-methanoacridin-9-yl)amino)pentyl)-2H-chromene-3-carboxamide] | 85.71 ± 1.66 ^bc % | 190 |  |
| CC12CCC(c3c1nc1ccccc1c3NCCCCCNC(=O)c1cc3cc(Br)ccc3oc1=O)C2(C)C (centres unmarked) [Compound 7c, 6-bromo-2-oxo-N-(5-((4,11,11-trimethyl-1,2,3,4-tetrahydro-1,4-methanoacridin-9-yl)amino)pentyl)-2H-chromene-3-carboxamide] | 50.72 ± 2.98 ^h % |  |  |
| CC12CCC(c3c1nc1ccccc1c3NCCCCCNC(=O)c1cc3cc(OC(F)(F)F)ccc3oc1=O)C2(C)C (centres unmarked) [Compound 7d, 2-oxo-6-(trifluoromethoxy)-N-(5-((4,11,11-trimethyl-1,2,3,4-tetrahydro-1,4-methanoacridin-9-yl)amino)pentyl)-2H-chromene-3-carboxamide] | 47.51 ± 2.65 ^hi % |  |  |
| COc1ccc2oc(=O)c(C(=O)NCCCCCNc3c4c(nc5ccccc35)C3(C)CCC4C3(C)C)cc2c1 (centres unmarked) [Compound 7e, 6-methoxy-2-oxo-N-(5-((4,11,11-trimethyl-1,2,3,4-tetrahydro-1,4-methanoacridin-9-yl)amino)pentyl)-2H-chromene-3-carboxamide] | 86.68 ± 2.18 ^b % | 65.1 |  |
| COc1ccc2cc(C(=O)NCCCCCNc3c4c(nc5ccccc35)C3(C)CCC4C3(C)C)c(=O)oc2c1 (centres unmarked) [Compound 7f, 7-methoxy-2-oxo-N-(5-((4,11,11-trimethyl-1,2,3,4-tetrahydro-1,4-methanoacridin-9-yl)amino)pentyl)-2H-chromene-3-carboxamide] | 81.70 ± 4.82 ^c % | 118 |  |
| COc1cc2cc(C(=O)NCCCCCNc3c4c(nc5ccccc35)C3(C)CCC4C3(C)C)c(=O)oc2cc1OC (centres unmarked) [Compound 7g, 6,7-dimethoxy-2-oxo-N-(5-((4,11,11-trimethyl-1,2,3,4-tetrahydro-1,4-methanoacridin-9-yl)amino)pentyl)-2H-chromene-3-carboxamide] | 84.75 ± 1.27 ^bc % | 153 |  |
| CC12CCC(c3c1nc1ccccc1c3NCCCCCCNC(=O)c1cc3ccccc3oc1=O)C2(C)C (centres unmarked) [Compound 8a, 2-oxo-N-(6-((4,11,11-trimethyl-1,2,3,4-tetrahydro-1,4-methanoacridin-9-yl)amino)hexyl)-2H-chromene-3-carboxamide] | 66.57 ± 1.09 ^de % |  |  |
| Cc1ccc2oc(=O)c(C(=O)NCCCCCCNc3c4c(nc5ccccc35)C3(C)CCC4C3(C)C)cc2c1 (centres unmarked) [Compound 8b] | 86.60% and 86.60 ± 2.13 ^b % | 49.2 | mixed-type inhibition; also recorded: mixed-type inhibitor |
| COc1ccc2oc(=O)c(C(=O)NCCCCCCNc3c4c(nc5ccccc35)C3(C)CCC4C3(C)C)cc2c1 (centres unmarked) [Compound 8e, 6-methoxy-2-oxo-N-(6-((4,11,11-trimethyl-1,2,3,4-tetrahydro-1,4-methanoacridin-9-yl)amino)hexyl)-2H-chromene-3-carboxamide] | 87.48% and 87.48 ± 0.27 ^b % | 50.8 | mixed-type inhibition; also recorded: mixed-type inhibitor |
| COc1ccc2cc(C(=O)NCCCCCCNc3c4c(nc5ccccc35)C3(C)CCC4C3(C)C)c(=O)oc2c1 (centres unmarked) [Compound 8f, 7-methoxy-2-oxo-N-(6-((4,11,11-trimethyl-1,2,3,4-tetrahydro-1,4-methanoacridin-9-yl)amino)hexyl)-2H-chromene-3-carboxamide] | 62.44 ± 1.63 ^e % |  |  |
| COc1cc2cc(C(=O)NCCCCCCNc3c4c(nc5ccccc35)C3(C)CCC4C3(C)C)c(=O)oc2cc1OC (centres unmarked) [Compound 8g, 6,7-dimethoxy-2-oxo-N-(6-((4,11,11-trimethyl-1,2,3,4-tetrahydro-1,4-methanoacridin-9-yl)amino)hexyl)-2H-chromene-3-carboxamide] | 62.74 ± 0.27 ^e % |  |  |
| CC12CCC(c3c1nc1ccccc1c3NCCCCCCCNC(=O)c1cc3ccccc3oc1=O)C2(C)C (centres unmarked) [Compound 9a, 2-oxo-N-(7-((4,11,11-trimethyl-1,2,3,4-tetrahydro-1,4-methanoacridin-9-yl)amino)heptyl)-2H-chromene-3-carboxamide] | 40.65 ± 4.28 ^j % |  |  |
| Cc1ccc2oc(=O)c(C(=O)NCCCCCCCNc3c4c(nc5ccccc35)C3(C)CCC4C3(C)C)cc2c1 (centres unmarked) [Compound 9b, 6-methyl-2-oxo-N-(7-((4,11,11-trimethyl-1,2,3,4-tetrahydro-1,4-methanoacridin-9-yl)amino)heptyl)-2H-chromene-3-carboxamide] | 61.56 ± 4.65 ^ef % |  |  |
| CC12CCC(c3c1nc1ccccc1c3NCCCCCCCNC(=O)c1cc3cc(Br)ccc3oc1=O)C2(C)C (centres unmarked) [Compound 9c, 6-bromo-2-oxo-N-(7-((4,11,11-trimethyl-1,2,3,4-tetrahydro-1,4-methanoacridin-9-yl)amino)heptyl)-2H-chromene-3-carboxamide] | 44.05 ± 2.74 ^ij % |  |  |
| CC12CCC(c3c1nc1ccccc1c3NCCCCCCCNC(=O)c1cc3cc(OC(F)(F)F)ccc3oc1=O)C2(C)C (centres unmarked) [Compound 9d, 2-oxo-6-(trifluoromethoxy)-N-(7-((4,11,11-trimethyl-1,2,3,4-tetrahydro-1,4-methanoacridin-9-yl)amino)heptyl)-2H-chromene-3-carboxamide] | 40.35 ± 2.45 ^j % |  |  |
| COc1ccc2oc(=O)c(C(=O)NCCCCCCCNc3c4c(nc5ccccc35)C3(C)CCC4C3(C)C)cc2c1 (centres unmarked) [Compound 9e, 6-methoxy-2-oxo-N-(7-((4,11,11-trimethyl-1,2,3,4-tetrahydro-1,4-methanoacridin-9-yl)amino)heptyl)-2H-chromene-3-carboxamide] | 62.15 ± 3.14 ^ef % |  |  |
| COc1ccc2cc(C(=O)NCCCCCCCNc3c4c(nc5ccccc35)C3(C)CCC4C3(C)C)c(=O)oc2c1 (centres unmarked) [Compound 9f, 7-methoxy-2-oxo-N-(7-((4,11,11-trimethyl-1,2,3,4-tetrahydro-1,4-methanoacridin-9-yl)amino)heptyl)-2H-chromene-3-carboxamide] | 56.11 ± 2.60 ^g % |  |  |
| COc1cc2cc(C(=O)NCCCCCCCNc3c4c(nc5ccccc35)C3(C)CCC4C3(C)C)c(=O)oc2cc1OC (centres unmarked) [Compound 9g, 6,7-dimethoxy-2-oxo-N-(7-((4,11,11-trimethyl-1,2,3,4-tetrahydro-1,4-methanoacridin-9-yl)amino)heptyl)-2H-chromene-3-carboxamide] | 35.49 ± 3.86 ^k % |  |  |
